Assay results as given in patent US20030186967A1, “Acylresorcinol derivatives are selective vitronectin receptor inhibitors” (American Home Products Corporation, priority 1998, published 2003).

Molecular target: T1, Vitronectin receptor αVβ3 (Homo sapiens, UniProt P05106+P06756)
T1 construct: expressed in transfected cells; host or cells: 512P5 cells (plasma membrane preparation)
Experiment: Vitronectin Receptor αVβ3 Binding Assay
Settings: read-out: VnR (IC50μM)

T1 sequence (P06756 31-889 limits assumed): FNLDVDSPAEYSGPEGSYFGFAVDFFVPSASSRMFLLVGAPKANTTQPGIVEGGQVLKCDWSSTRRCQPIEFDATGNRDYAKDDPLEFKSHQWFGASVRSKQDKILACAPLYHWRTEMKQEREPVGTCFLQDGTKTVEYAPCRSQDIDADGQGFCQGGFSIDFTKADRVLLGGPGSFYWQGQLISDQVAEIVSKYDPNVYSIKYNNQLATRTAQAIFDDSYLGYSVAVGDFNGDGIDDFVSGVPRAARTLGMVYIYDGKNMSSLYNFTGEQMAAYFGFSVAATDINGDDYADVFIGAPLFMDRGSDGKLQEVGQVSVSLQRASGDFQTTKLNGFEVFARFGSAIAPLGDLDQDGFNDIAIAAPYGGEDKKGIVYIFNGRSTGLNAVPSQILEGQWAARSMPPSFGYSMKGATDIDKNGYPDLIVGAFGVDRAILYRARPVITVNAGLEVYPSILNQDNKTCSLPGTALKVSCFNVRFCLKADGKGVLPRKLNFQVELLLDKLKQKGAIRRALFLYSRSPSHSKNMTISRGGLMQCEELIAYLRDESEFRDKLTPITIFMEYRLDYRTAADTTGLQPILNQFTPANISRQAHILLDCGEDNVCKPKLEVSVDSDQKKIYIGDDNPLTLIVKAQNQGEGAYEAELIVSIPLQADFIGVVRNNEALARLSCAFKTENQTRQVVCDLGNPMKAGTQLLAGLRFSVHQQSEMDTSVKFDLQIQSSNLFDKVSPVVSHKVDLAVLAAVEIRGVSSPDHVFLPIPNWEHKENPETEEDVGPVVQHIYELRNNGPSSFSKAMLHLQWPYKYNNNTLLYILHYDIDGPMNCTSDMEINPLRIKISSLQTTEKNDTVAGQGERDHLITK
T1 sequence (P06756 891-1048 partner limits assumed): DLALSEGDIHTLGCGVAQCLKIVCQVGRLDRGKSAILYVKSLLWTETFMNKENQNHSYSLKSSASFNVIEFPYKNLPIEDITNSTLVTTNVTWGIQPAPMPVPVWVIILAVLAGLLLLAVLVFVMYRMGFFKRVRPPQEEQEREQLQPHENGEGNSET
T1 sequence (P05106 27-788): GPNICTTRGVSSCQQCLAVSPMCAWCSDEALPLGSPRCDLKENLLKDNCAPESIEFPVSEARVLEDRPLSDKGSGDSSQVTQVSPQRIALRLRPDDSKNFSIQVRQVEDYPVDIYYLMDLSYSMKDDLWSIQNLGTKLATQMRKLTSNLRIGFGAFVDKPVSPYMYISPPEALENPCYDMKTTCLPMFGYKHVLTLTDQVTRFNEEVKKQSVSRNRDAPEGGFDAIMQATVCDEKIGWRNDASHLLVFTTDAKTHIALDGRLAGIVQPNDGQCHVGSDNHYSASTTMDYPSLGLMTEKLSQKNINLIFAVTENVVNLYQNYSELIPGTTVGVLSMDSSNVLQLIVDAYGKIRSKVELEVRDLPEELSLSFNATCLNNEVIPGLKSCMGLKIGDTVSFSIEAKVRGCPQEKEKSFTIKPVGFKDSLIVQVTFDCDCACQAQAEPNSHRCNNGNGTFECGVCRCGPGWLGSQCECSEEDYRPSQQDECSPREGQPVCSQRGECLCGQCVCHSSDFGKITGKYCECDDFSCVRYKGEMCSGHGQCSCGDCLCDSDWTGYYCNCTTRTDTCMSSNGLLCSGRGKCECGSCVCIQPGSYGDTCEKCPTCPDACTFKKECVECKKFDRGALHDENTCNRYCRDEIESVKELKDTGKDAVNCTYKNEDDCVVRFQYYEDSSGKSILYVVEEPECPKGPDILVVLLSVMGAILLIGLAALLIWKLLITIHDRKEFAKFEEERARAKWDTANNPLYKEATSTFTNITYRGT

| SMILES | IC50 [µM] |
| --- | --- |
| COc1ccccc1C(=O)N[C@@H](CNC(=O)c1ccc(OCCNC2=NCCN2)cc1O)C(=O)O [Example 133, (2S)-3-({4-[2-(4,5-dihydro-1H-imidazol-2-ylamino)ethoxy]-2-hydroxybenzoyl}-amino)-2-[(2-methoxybenzoyl)amino]propanoic acid] | > 1 |
| N=C(N)NCCOc1ccc(C(=O)NC[C@H](NC(=O)CC23CC4CC(CC(C4)C2)C3)C(=O)O)c(O)c1 [Example 196, (2S)-2-{[2-(1-adamantyl)acetyl]amino}-3-{[4-(2-{[amino(imino)methyl]amino}-ethoxy)-2-hydroxybenzoyl]amino}propanoic acid] | 5.71 |
| C=CCOC(=O)N[C@@H](CNC(=O)c1ccc(OCCNC(=N)N)cc1O)C(=O)O [Example 162] | 1.1 |
| N=C(N)NCCOc1ccc(C(=O)NC[C@H](NC(=O)c2ccc(Br)cc2)C(=O)O)c(O)c1 [Example 213, (2S)-3-{[4-(2-{[amino(imino)methyl]amino}ethoxy)-2-hydroxybenzoyl]amino}-2-[(4-bromobenzoyl)amino]propanoic acid] | > 1 |
| CC(C)(C)COC(=O)N[C@@H](CNC(=O)c1ccc(OCCNC2=NCCCCC2)cc1O)C(=O)O [Example 142, (2S)-3-({2-hydroxy-4-[2-(3,4,5,6-tetrahydro-2H-azepin-7-ylamino)ethoxy]benzoyl}amino)-2-{[(neopentyloxy)carbonyl]amino}propanoic acid] | 1.6 |
| CCCCCCOC(=O)N[C@@H](CNC(=O)c1ccc(OCCNC2=NCCN2)cc1O)C(=O)O [Example 104, (2S)-3-({4-[2-(4,5-dihydro-1H-imidazol-2-ylamino)ethoxy]-2-hydroxybenzoyl}-amino)-2-{[(hexyloxy)carbonyl]amino}propanoic acid] | 0.086 |
| CC(C)(C)NC(=O)N[C@@H](CNC(=O)c1ccc(OCCNc2ncccn2)cc1O)C(=O)O [Example 72, (2S)-2-{[(tert-butylamino)carbonyl]amino}-3-({2-hydroxy-4-[2-(pyrimidin-2-ylamino)ethoxy]benzoyl}amino)propanoic acid] | > 1 |
| CCCC(=O)N[C@@H](CNC(=O)c1ccc(OCCNC(=N)N)cc1O)C(=O)O [Example 191, (2S)-3-{[4-(2-{[amino(imino)methyl]amino}ethoxy)-2-hydroxybenzoyl]amino}-2-(butyrylamino)propanoic acid] | > 1 |
| O=C(Nc1ccccc1-c1ccccc1)N[C@@H](CNC(=O)c1ccc(OCCNc2ncccn2)cc1O)C(=O)O [Example 82, (2S)-2-{[([1,1′-biphenyl]-2-ylamino)carbonyl]amino}-3-({2-hydroxy-4-[2-(pyrimidin-2-ylamino)ethoxy]benzoyl}amino)propanoic acid] | > 1 |
| COC(=O)N[C@@H](CNC(=O)c1ccc(OCCNC2=NCCN2)cc1O)C(=O)O [Example 97, (2S)-3-({4-[2-(4,5-dihydro-1H-imidazol-2-ylamino)ethoxy]-2-hydroxybenzoyl}-amino)-2-[(methoxycarbonyl)amino]propanoic acid] | 0.77 |
| N=C(N)NCCOc1ccc(C(=O)NC[C@H](NC(=O)c2ccncc2)C(=O)O)c(O)c1 [Example 210, (2S)-3-{[4-(2-{[amino(imino)methyl]amino}ethoxy)-2-hydroxybenzoyl]amino}-2-(isonicotinoylamino)propanoic acid] | > 1 |
| CCCCCCOC(=O)N[C@@H](CNC(=O)c1ccc(OCCNC(=N)N)cc1O)C(=O)O [Example 166, (2S)-3-{[4-(2-{[amino(imino)methyl]amino}ethoxy)-2-hydroxybenzoyl]amino}-2-{[(hexyloxy)carbonyl]amino}propanoic acid] | 0.8 |
| O=C(NC1CCCCC1)N[C@@H](CNC(=O)c1ccc(OCCNC2=NCCCN2)cc1O)C(=O)O [Example 21, (2S)-2-{[(cyclohexylamino)carbonyl]amino}-3-({2-hydroxy-4-[2-(1,4,5,6-tetrahydropyrimidin-2-ylamino)ethoxy]benzoyl}amino)propanoic acid] | 1.52 |
| C=CCCOC(=O)N[C@@H](CNC(=O)c1ccc(OCCNC(=N)N)cc1O)C(=O)O [Example 163, (2S)-3-{[4-(2-{[amino(imino)methyl]amino}ethoxy)-2-hydroxybenzoyl]amino}-2-{[(but-3-enyloxy)carbonyl]amino}propanoic acid] | 1.1 |
| O=C(CC12CC3CC(CC(C3)C1)C2)N[C@@H](CNC(=O)c1ccc(OCCNC2=NCCN2)cc1O)C(=O)O [Example 124, (2S)-2-{[2-(1-adamantyl)acetyl]amino}-3-({4-[2-(4,5-dihydro-1H-imidazol-2-ylamino)ethoxy]-2-hydroxybenzoyl}amino)propanoic acid] | 0.734 |

Other lines, results leading:

| IC50 [µM] | SMILES |
| --- | --- |
| > 1 | COc1ccccc1C(=O)N[C@@H](CNC(=O)c1ccc(OCCNC(=N)N)cc1O)C(=O)O [Example 205, (2S)-3-{[4-(2-{[amino(imino)methyl]amino}ethoxy)-2-hydroxybenzoyl]amino}-2-[(2-methoxybenzoyl)amino]propanoic acid] |
| 20.8 | CCOC(=O)N[C@@H](CNC(=O)c1ccc(OCCNC(=O)NCc2ccccc2)cc1O)C(=O)O [Example 222, (2S)-3-{[4-(2-{[(benzylamino)carbonyl]amino}ethoxy)-2-hydroxybenzoyl]amino}-2-[(ethoxycarbonyl)amino]propanoic acid] |
| 5 | C=CCOC(=O)N[C@@H](CNC(=O)c1ccc(OCCNC(=O)NCc2ccccc2)cc1O)C(=O)O [Example 225, (2S)-2-{[(allyloxy)carbonyl]amino}-3-{[4-(2-{[(benzylamino)carbonyl]amino}-ethoxy)-2-hydroxybenzoyl]amino}propanoic acid] |
| 4.28 | Cc1ccccc1NC(=O)N[C@@H](CNC(=O)c1ccc(OCCNC(=N)N)cc1O)C(=O)O [Example 173, (2S)-3-{[4-(2-{[amino(imino)methyl]amino}ethoxy)-2-hydroxybenzoyl]amino}-2-[(2-toluidinocarbonyl)amino]propanoic acid] |
| 29 | O=C(NCCOc1ccc(C(=O)NC[C@H](NC(=O)OCc2ccccc2)C(=O)O)c(O)c1)NCc1ccc(Cl)cc1 [Example 263, (2S)-2-{[(benzyloxy)carbonyl]amino}-3-({4-[2-({[(4-chlorobenzyl)amino]-carbonyl}-amino)ethoxy]-2-hydroxybenzoyl}amino)propanoic acid] |
| > 1 | COc1ccccc1NC(=O)N[C@@H](CNC(=O)c1ccc(OCCNc2ncccn2)cc1O)C(=O)O [Example 79, (2S)-3-({2-hydroxy-4-[2-(pyrimidin-2-ylamino)ethoxy]benzoyl}amino)-2-{[(2-methoxyanilino)carbonyl]amino}propanoic acid] |
| > 1 | O=C(NCCc1ccccc1)N[C@@H](CNC(=O)c1ccc(OCCNc2ncccn2)cc1O)C(=O)O [Example 93, (2S)-3-({2-hydroxy-4-[2-(pyrimidin-2-ylamino)ethoxy]benzoyl}amino)-2-({[(2phenylethyl)amino]carbonyl}amino)propanoic acid] |
| 20.2 | Cc1ccc(CNC(=O)NCCOc2ccc(C(=O)NC[C@H](NC(=O)OCc3ccccc3)C(=O)O)c(O)c2)cc1 [Example 261, (2S)-2-{[(benzyloxy)carbonyl]amino}-3-({2-hydroxy-4-[2-({[(4-methylbenzyl)-amino]carbonyl}amino)ethoxy]benzoyl}amino)propanoic acid] |
